Patent US20230271950A1, “ANTIBACTERIAL PICOLINAMIDE COMPOUNDS” (University of Notre Dame Du Lac, priority 2020, published 2023)
Where two headings read alike, the source gives them in different places.

Tests used:
C. difficile = assay: MIC by broth microdilution against C. difficile strains; format: cell-based, Clostridioides difficile
Lactobacillus reuteri = assay: MIC against gut bacterium Lactobacillus reuteri; format: cell-based
E. faecium NCTC7171 = assay: MIC against E. faecium; format: cell-based, Enterococcus faecium; details: Enterococcus faecium
Bacteroides fragilis = assay: MIC against gut bacterium Bacteroides fragilis; format: cell-based; details: Bacteroides fragilis, Bacteroides fragilis strain HM-709, read-out: MIC
MRSA (NRS70, NRS119) = assay: MIC against MRSA strains; format: cell-based, Staphylococcus aureus; details: for MIC: Staphylococcus aureus, read-out: MIC

O=C(O)c1ccc2oc(NC(=O)c3cc(Oc4cccc(OC(F)(F)F)c4)ccn3)nc2c1 [Compound 1, Sodium 2-(4-(3-(trifluoromethoxy)phenoxy)picolinamido)benzo[d]oxazole-5-carboxylate]
MIC (C. difficile; C. difficile NR-49309, Table 9): 0.125 µg/mL | MIC (C. difficile; C. difficile NR-49312, Table 9): 0.125 µg/mL | MIC (C. difficile; C. difficile NR-49314, Table 9): 0.125 µg/mL | MIC (C. difficile; C. difficile NR-49315, Table 9): 0.125 µg/mL | MIC (C. difficile; C. difficile NR-49316, Table 9): 0.125 µg/mL | MIC (C. difficile; C. difficile NR-49317, Table 9): 0.125 µg/mL | MIC (C. difficile; C. difficile NR-49319, Table 9): 0.125 µg/mL | MIC (C. difficile; C. difficile NR-49320, Table 9): 0.125 µg/mL | MIC (C. difficile; C. difficile NR-49323, Table 9): 0.125 µg/mL | MIC (C. difficile; C. difficile NR-49324, Table 9): 0.125 µg/mL | MIC (C. difficile; C. difficile NR-49325, Table 9): 0.125 µg/mL | MIC (C. difficile; C. difficile NR-49326, Table 9): 0.125 µg/mL | MIC (C. difficile; C. difficile NR-49329, Table 9): 0.125 µg/mL | MIC (C. difficile; C. difficile, Table 8): 0.125 µg/mL | MIC (C. difficile; Clostridioides difficile): 0.125 µg/mL | MIC (C. difficile; Clostridioides difficile, ATCC43255): 0.125 µg/mL | MIC (C. difficile; Clostridioides difficile, ATCC43255, C. difficile ATCC 43255, read-out: MIC against C. difficile): 0.12 µg/mL | MIC (C. difficile; Clostridioides difficile, ATCC43598): 0.125 µg/mL | MIC (C. difficile; Clostridioides difficile, BAA1801): 0.125 µg/mL | MIC (C. difficile; Clostridioides difficile, BAA1803, C. difficile BAA-1803, Table 7, read-out: MIC): 0.0625 µg/mL | MIC (C. difficile; Clostridioides difficile, BAA1803, C. difficile BAA-1803, Table 9, read-out: MIC): 0.06 µg/mL | MIC (C. difficile; Clostridioides difficile, BAA1804): 0.125 µg/mL | MIC (C. difficile; Clostridioides difficile, BAA1812): 0.125 µg/mL | MIC (C. difficile; Clostridioides difficile, BAA1814): 0.125 µg/mL | MIC (C. difficile; Clostridioides difficile, BAA1870): 0.125 µg/mL | MIC (C. difficile; Clostridioides difficile, C. difficile 23828 (FR, fidaxomicin-resistant), Table 7, read-out: MIC): 0.25 µg/mL | MIC (C. difficile; Clostridioides difficile, C. difficile 23828, clinical isolate resistant to FDX, Table 1, read-out: MIC): 0.25 µg/mL | MIC (C. difficile; Clostridioides difficile, C. difficile 23828, Table 9, read-out: MIC): 0.25 µg/mL | MIC (C. difficile; Clostridioides difficile, C. difficile 24531 (VR, vancomycin-resistant), Table 7, read-out: MIC): 0.25 µg/mL | MIC (C. difficile; Clostridioides difficile, C. difficile 24531, Table 9, read-out: MIC): 0.25 µg/mL | MIC (C. difficile; Clostridioides difficile, C. difficile 26675 (MR, metronidazole-resistant), Table 7, read-out: MIC): 0.25 µg/mL | MIC (C. difficile; Clostridioides difficile, C. difficile 26675, clinical isolate resistant to MTZ, Table 1, read-out: MIC): 0.25 µg/mL | MIC (C. difficile; Clostridioides difficile, C. difficile 26675, Table 9, read-out: MIC): 0.25 µg/mL | MIC (C. difficile; Clostridioides difficile, C. difficile HM-88, Table 9, read-out: MIC): 0.25 µg/mL | MIC (C. difficile; Clostridioides difficile, C. difficile NR49294, Table 7, read-out: MIC): 0.0625 µg/mL | MIC (C. difficile; Clostridioides difficile, C. difficile NR49294, Table 9, read-out: MIC): 0.06 µg/mL | MIC (C. difficile; Clostridioides difficile, C. difficile NR49302, Table 7, read-out: MIC): 0.0625 µg/mL | MIC (C. difficile; Clostridioides difficile, C. difficile NR49302, Table 9, read-out: MIC): 0.06 µg/mL | MIC (C. difficile; Clostridioides difficile, C. difficile NR49305, Table 7, read-out: MIC): 0.0625 µg/mL | MIC (C. difficile; Clostridioides difficile, C. difficile NR49305, Table 9, read-out: MIC): 0.06 µg/mL | MIC (C. difficile; Clostridioides difficile, C. difficile NR49318, Table 7, read-out: MIC): 0.06 µg/mL | MIC (C. difficile; Clostridioides difficile, C. difficile NR49318, Table 9, read-out: MIC): 0.06 µg/mL | MIC (C. difficile; Clostridioides difficile, C. difficile NR-13429, Table 9, read-out: MIC): 0.06 µg/mL | MIC (C. difficile; Clostridioides difficile, C. difficile NR-13431, Table 9, read-out: MIC): 0.06 µg/mL | MIC (C. difficile; Clostridioides difficile, C. difficile NR-13433, Table 9, read-out: MIC): 0.25 µg/mL | MIC (C. difficile; Clostridioides difficile, C. difficile NR-32885, Table 9, read-out: MIC): 0.25 µg/mL | MIC (C. difficile; Clostridioides difficile, C. difficile NR-32890, Table 9, read-out: MIC): 0.25 µg/mL | MIC (C. difficile; Clostridioides difficile, C. difficile NR-32891, Table 9, read-out: MIC): 0.25 µg/mL | MIC (C. difficile; Clostridioides difficile, C. difficile NR-32895, Table 9, read-out: MIC): 0.25 µg/mL | MIC (C. difficile; Clostridioides difficile, C. difficile NR-32896, Table 9, read-out: MIC): 0.25 µg/mL | MIC (C. difficile; Clostridioides difficile, C. difficile NR-32903, Table 9, read-out: MIC): 0.25 µg/mL | MIC (C. difficile; Clostridioides difficile, C. difficile NR-49281, Table 9, read-out: MIC): 0.06 µg/mL | MIC (C. difficile; Clostridioides difficile, C. difficile NR-49283, Table 9, read-out: MIC): 0.06 µg/mL | MIC (C. difficile; Clostridioides difficile, C. difficile NR-49284, Table 9, read-out: MIC): 0.25 µg/mL | MIC (C. difficile; Clostridioides difficile, C. difficile NR-49285, Table 9, read-out: MIC): 0.03 µg/mL | MIC (C. difficile; Clostridioides difficile, C. difficile NR-49287, Table 9, read-out: MIC): 0.06 µg/mL | MIC (C. difficile; Clostridioides difficile, C. difficile NR-49289, Table 9, read-out: MIC): 0.25 µg/mL | MIC (C. difficile; Clostridioides difficile, C. difficile NR-49297, Table 9, read-out: MIC): 0.06 µg/mL | MIC (C. difficile; Clostridioides difficile, C. difficile NR-49298, Table 9, read-out: MIC): 0.06 µg/mL | MIC (C. difficile; Clostridioides difficile, C. difficile NR-49304, Table 9, read-out: MIC): 0.25 µg/mL | MIC (C. difficile; Clostridioides difficile, C. difficile NR-49306, Table 9, read-out: MIC): 0.25 µg/mL | MIC (C. difficile; Clostridioides difficile, C. difficile NR-49311, Table 9, read-out: MIC): 0.25 µg/mL | MIC (C. difficile; Clostridioides difficile, C. difficile NR-49313, Table 9, read-out: MIC): 0.06 µg/mL | MIC (C. difficile; Clostridioides difficile, C. difficile NR-49321, Table 9, read-out: MIC): 0.25 µg/mL | MIC (C. difficile; Clostridioides difficile, C. difficile NR-49327, Table 9, read-out: MIC): 0.25 µg/mL | MIC (C. difficile; Clostridioides difficile, C. difficile NR-49328, Table 9, read-out: MIC): 0.06 µg/mL | MIC50 (C. difficile; Clostridioides difficile, 101 C. difficile strains): 0.12 µg/mL | MIC90 (C. difficile; Clostridioides difficile, 101 C. difficile strains, read-out: MIC90 (101 strains)): 0.25 µg/mL | Selectivity (C. difficile; MIC MRSA NRS70/MIC C. difficile ATCC43255, Table 7): 128 | Selectivity (C. difficile; Table 8): 128 | MIC (Lactobacillus reuteri; Lactobacillus reuteri strain HM-102, Table 7): 4 µg/mL | MIC (Lactobacillus reuteri; Limosilactobacillus reuteri, Lactobacillus reuter strain HM-102, Table 1, read-out: MIC): 4 µg/mL | MIC (E. faecium NCTC7171; NCTC7171, E. faecium NCTC 7171, Table 10, unit inferred, read-out: Activity (MIC) against E. faecium): ≥ 128 µg/mL | MIC (E. faecium NCTC7171; E. faecium NCTC7171, Table 1, read-out: MIC): > 128 µg/mL | MIC (Bacteroides fragilis; Table 1): 2 µg/mL | MIC (Bacteroides fragilis; Table 7): 4 µg/mL | lower activity against MRSA (MRSA (NRS70, NRS119); MRSA versus C. difficile, Table 1): 128 fold | MIC (MRSA (NRS70, NRS119); MRSA NRS70, Table 1): 16 µg/mL | MIC (MRSA (NRS70, NRS119); MRSA NRS70, Table 7): 16 µg/mL | MIC (MRSA (NRS70, NRS119); MRSA NRS119, Table 1): 16 µg/mL
